Residue numbers refer to the chain shown, from its start.
Key:
Experiment in all cases: carotenoid production in E. coli, HPLC-PDA-MS
Format in all cases: cell-based
[1] = target: T1, AtE (At-y2) (Arabidopsis thaliana, UniProt Q38932)
T1 construct: gene LUT2; full-length (transit peptide kept), pUCara plasmid, expressed in E. coli XL1-Blue with carotenoid pathway enzymes
T1 sequence (Q38932 1-524): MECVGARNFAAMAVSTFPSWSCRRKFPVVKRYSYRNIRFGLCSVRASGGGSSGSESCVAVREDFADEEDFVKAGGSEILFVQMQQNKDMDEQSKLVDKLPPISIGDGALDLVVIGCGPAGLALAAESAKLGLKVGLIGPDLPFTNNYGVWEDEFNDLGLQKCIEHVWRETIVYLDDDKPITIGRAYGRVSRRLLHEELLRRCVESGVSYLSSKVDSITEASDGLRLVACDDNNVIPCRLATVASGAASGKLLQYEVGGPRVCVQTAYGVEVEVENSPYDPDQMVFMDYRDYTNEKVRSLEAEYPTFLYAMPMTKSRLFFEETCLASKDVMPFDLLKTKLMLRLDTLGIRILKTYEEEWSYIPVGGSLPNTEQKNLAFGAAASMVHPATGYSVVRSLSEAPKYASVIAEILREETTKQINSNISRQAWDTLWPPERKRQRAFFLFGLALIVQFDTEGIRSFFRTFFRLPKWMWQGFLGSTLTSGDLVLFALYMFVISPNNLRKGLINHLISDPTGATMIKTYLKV

[2] = target: T2, LsE (Lactuca sativa, UniProt Q9AXK7); conditions: E. coli making C40-lycopene; product ε,ε-carotene
T2 construct: pUCara plasmid, expressed in E. coli XL1-Blue with carotenoid pathway enzymes
T2 sequence (Q9AXK7 1-533 limits assumed): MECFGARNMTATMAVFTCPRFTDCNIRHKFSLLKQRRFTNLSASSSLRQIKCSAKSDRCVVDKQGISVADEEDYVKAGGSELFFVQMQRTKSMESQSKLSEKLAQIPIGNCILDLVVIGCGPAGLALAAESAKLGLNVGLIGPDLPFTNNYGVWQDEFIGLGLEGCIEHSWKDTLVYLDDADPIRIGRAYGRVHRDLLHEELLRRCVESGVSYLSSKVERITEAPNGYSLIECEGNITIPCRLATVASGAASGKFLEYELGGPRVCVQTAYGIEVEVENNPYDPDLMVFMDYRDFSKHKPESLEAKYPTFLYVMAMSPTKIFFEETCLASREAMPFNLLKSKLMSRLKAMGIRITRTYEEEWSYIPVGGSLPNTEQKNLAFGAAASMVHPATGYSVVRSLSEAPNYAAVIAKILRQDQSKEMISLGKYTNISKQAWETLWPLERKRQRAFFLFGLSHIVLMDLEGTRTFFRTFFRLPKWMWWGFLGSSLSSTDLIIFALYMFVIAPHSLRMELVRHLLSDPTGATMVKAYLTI

[3] = target: T3, AtE (At-y2) (Arabidopsis thaliana, UniProt Q38932, L448H); conditions: E. coli making C40-lycopene
T3 construct: gene LUT2; full-length (transit peptide kept), pUCara plasmid, expressed in E. coli XL1-Blue with carotenoid pathway enzymes
T3 sequence (Q38932 1-524 L448H): T1 sequence (Q38932 1-524) with L448H

SMILES	carotenoid production in E. coli, HPLC-PDA-MS ([1]; E. coli making C50-lycopene, TB medium, L-arabinose induction, product C50-ε,ε-carotene)	carotenoid production in E. coli, HPLC-PDA-MS [2]	carotenoid production in E. coli, HPLC-PDA-MS [3]	carotenoid production in E. coli, HPLC-PDA-MS ([1]; E. coli making C40-lycopene, product δ-carotene (ε,ψ-carotene))
CC(C)=CCC/C(C)=C/C=C/C(C)=C/C=C/C(C)=C/C=C/C(C)=C/C=C/C=C(C)/C=C/C=C(C)/C=C/C=C(C)/C=C/C=C(\C)CCC=C(C)C [C50-lycopene]	AtE cyclized both ends of the C50-lyopene (Fig 2C)	–	–	–
CC(C)=CCC/C(C)=C/C=C/C(C)=C/C=C/C(C)=C/C=C/C=C(C)/C=C/C=C(C)/C=C/C=C(\C)CCC=C(C)C [C40-lycopene]	–	LsE could equally and efficiently act on both sides of C40-lycopene (Fig 3B)	very subtle effect (if not none) of L448H also in the natural C40 pathway	this enzyme fully consumed its natural substrate C40-lycopene and yielded ε, ψ-carotene
